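Five compound concentrations were applied to cells in 96-well plates for 48 hours; endpoints were derived by simple linear interpolation of the resulting dose-response curve. TGI marks complete inhibition of growth.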
What was measured:
Assay in all cases: NCI tumour cell line growth inhibition, 48 h
[1] = system: 786-0 renal
[2] = system: A498 renal
[3] = system: A549 NSCLC
[4] = system: CAKI-1 renal
[5] = system: CCRF-CEM leukemia
[6] = system: COLO 205 colon
[7] = system: DLD-1 colon
[8] = system: DMS 114 small cell lung
[9] = system: DMS 273 small cell lung
[10] = system: EKVX NSCLC
[11] = system: HCC-2998 colon
[12] = system: HCT-116 colon
[13] = system: HL-60(TB) leukemia
[14] = system: HOP-18 NSCLC
[15] = system: HOP-62 NSCLC
[16] = system: HOP-92 NSCLC
[17] = system: IGROV1 ovarian
[18] = system: K-562 leukemia
[19] = system: KM12 colon
[20] = system: KM20L2 colon
[21] = system: LOX IMVI melanoma
[22] = system: LXFL 529 NSCLC
[23] = system: M14 melanoma
[24] = system: M19-MEL melanoma
[25] = system: MALME-3M melanoma
[26] = system: MOLT-4 leukemia
[27] = system: NCI-H226 lung
[28] = system: NCI-H23 lung
[29] = system: NCI-H460 lung
[30] = system: NCI-H522 lung
[31] = system: OVCAR-3 ovarian
[32] = system: OVCAR-4 ovarian
[33] = system: OVCAR-5 ovarian
[34] = system: OVCAR-8 ovarian
[35] = system: RPMI-8226 leukemia
[36] = system: RXF 393 renal
[37] = system: RXF-631 renal
[38] = system: SF-268 CNS
[39] = system: SF-295 CNS
[40] = system: SF-539 CNS
[41] = system: SK-MEL-2 melanoma
[42] = system: SK-MEL-28 melanoma
[43] = system: SK-MEL-5 melanoma
[44] = system: SK-OV-3 ovarian
[45] = system: SN12C renal
[46] = system: SNB-19 CNS
[47] = system: SNB-75 CNS
[48] = system: SNB-78 CNS
[49] = system: SW-620 colon
[50] = system: TK-10 renal
[51] = system: U251 CNS
[52] = system: UACC-257 melanoma
[53] = system: UACC-62 melanoma
[54] = system: UO-31 renal
[55] = system: XF 498 CNS
[56] = system: ACHN renal
[57] = system: HCT-15 colon
[58] = system: SR leukemia

Measured: TGI

CN(C)c1ccc(/C=c2\sc3nnc(-c4ccco4)n3c2=O)cc1
> 100 µM: [1] | [2] | [3] | [4] | [5] | [6] | [7] | [8] | [9] | [10] | [11] | [12] | [13] | [14] | [15] | [16] | [17] | [18] | [19] | [20] | [21] | [22] | [23] | [24] | [25] | [26] | [27] | [28] | [29] | [30] | [31] | [32] | [33] | [34] | [35] | [36] | [37] | [38] | [39] | [40] | [41] | [42] | [43] | [44] | [45] | [46] | [47] | [48] | [49] | [50] | [51] | [52] | [53] | [54] | [55]

c1ccc(SC(Sc2ccccc2)=C2CCC2)cc1
> 100 µM: [1] | [2] | [3] | [56] | [4] | [5] | [6] | [7] | [8] | [9] | [10] | [12] | [57] | [13] | [15] | [16] | [18] | [19] | [20] | [21] | [23] | [24] | [26] | [28] | [29] | [30] | [31] | [32] | [34] | [35] | [36] | [37] | [38] | [39] | [40] | [41] | [42] | [43] | [44] | [45] | [46] | [47] | [48] | [58] | [49] | [50] | [51] | [52] | [53] | [54] | [55]

— PubChem BioAssay (NCI)
